# Reference: PubChem BioAssay (NCI)
#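 A five-concentration, 48-hour dose response in 96-well plates underlies each endpoint, interpolated linearly between surrounding concentrations. TGI: total growth inhibition.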
# Legend:
# Experiment in all cases: DTP human tumour cell line panel, 48 h
# 786-0 renal = test system: 786-0 renal
# A498 renal = test system: A498 renal
# A549 NSCLC = test system: A549 NSCLC
# ACHN renal = test system: ACHN renal
# CAKI-1 renal = test system: CAKI-1 renal
# CCRF-CEM leukemia = test system: CCRF-CEM leukemia
# COLO 205 colon = test system: COLO 205 colon
# DLD-1 colon = test system: DLD-1 colon
# DMS 114 small cell lung = test system: DMS 114 small cell lung
# DMS 273 small cell lung = test system: DMS 273 small cell lung
# EKVX NSCLC = test system: EKVX NSCLC
# HCC-2998 colon = test system: HCC-2998 colon
# HCT-116 colon = test system: HCT-116 colon
# HCT-15 colon = test system: HCT-15 colon
# HL-60(TB) leukemia = test system: HL-60(TB) leukemia
# HOP-62 NSCLC = test system: HOP-62 NSCLC
# HT29 colon = test system: HT29 colon
# IGROV1 ovarian = test system: IGROV1 ovarian
# K-562 leukemia = test system: K-562 leukemia
# KM12 colon = test system: KM12 colon
# KM20L2 colon = test system: KM20L2 colon
# LOX IMVI melanoma = test system: LOX IMVI melanoma
# LXFL 529 NSCLC = test system: LXFL 529 NSCLC
# M14 melanoma = test system: M14 melanoma
# M19-MEL melanoma = test system: M19-MEL melanoma
# MALME-3M melanoma = test system: MALME-3M melanoma
# MOLT-4 leukemia = test system: MOLT-4 leukemia
# NCI-H226 lung = test system: NCI-H226 lung
# NCI-H23 lung = test system: NCI-H23 lung
# NCI-H460 lung = test system: NCI-H460 lung
# NCI-H522 lung = test system: NCI-H522 lung
# OVCAR-3 ovarian = test system: OVCAR-3 ovarian
# OVCAR-5 ovarian = test system: OVCAR-5 ovarian
# OVCAR-8 ovarian = test system: OVCAR-8 ovarian
# RPMI-8226 leukemia = test system: RPMI-8226 leukemia
# RXF 393 renal = test system: RXF 393 renal
# SF-268 CNS = test system: SF-268 CNS
# SF-295 CNS = test system: SF-295 CNS
# SF-539 CNS = test system: SF-539 CNS
# SK-MEL-2 melanoma = test system: SK-MEL-2 melanoma
# SK-MEL-28 melanoma = test system: SK-MEL-28 melanoma
# SK-MEL-5 melanoma = test system: SK-MEL-5 melanoma
# SK-OV-3 ovarian = test system: SK-OV-3 ovarian
# SN12C renal = test system: SN12C renal
# SNB-19 CNS = test system: SNB-19 CNS
# SNB-75 CNS = test system: SNB-75 CNS
# SNB-78 CNS = test system: SNB-78 CNS
# SW-620 colon = test system: SW-620 colon
# TK-10 renal = test system: TK-10 renal
# U251 CNS = test system: U251 CNS
# UACC-257 melanoma = test system: UACC-257 melanoma
# UACC-62 melanoma = test system: UACC-62 melanoma
# UO-31 renal = test system: UO-31 renal
# HOP-92 NSCLC = test system: HOP-92 NSCLC
# OVCAR-4 ovarian = test system: OVCAR-4 ovarian
compound,measurement,setting,value
COc1nc(=O)cc(N)n1C1OC(CO)C(O)C1O (configuration not stated),TGI,786-0 renal,> 100 µM
same,TGI,A498 renal,> 100 µM
same,TGI,A549 NSCLC,> 100 µM
same,TGI,ACHN renal,> 100 µM
same,TGI,CAKI-1 renal,> 100 µM
same,TGI,CCRF-CEM leukemia,> 100 µM
same,TGI,COLO 205 colon,> 100 µM
same,TGI,DLD-1 colon,> 100 µM
same,TGI,DMS 114 small cell lung,> 100 µM
same,TGI,DMS 273 small cell lung,> 100 µM
same,TGI,EKVX NSCLC,> 100 µM
same,TGI,HCC-2998 colon,> 100 µM
same,TGI,HCT-116 colon,> 100 µM
same,TGI,HCT-15 colon,> 100 µM
same,TGI,HL-60(TB) leukemia,> 100 µM
same,TGI,HOP-62 NSCLC,> 100 µM
same,TGI,HT29 colon,> 100 µM
same,TGI,IGROV1 ovarian,> 100 µM
same,TGI,K-562 leukemia,> 100 µM
same,TGI,KM12 colon,> 100 µM
same,TGI,KM20L2 colon,> 100 µM
same,TGI,LOX IMVI melanoma,> 100 µM
same,TGI,LXFL 529 NSCLC,> 100 µM
same,TGI,M14 melanoma,> 100 µM
same,TGI,M19-MEL melanoma,> 100 µM
same,TGI,MALME-3M melanoma,> 100 µM
same,TGI,MOLT-4 leukemia,> 100 µM
same,TGI,NCI-H226 lung,> 100 µM
same,TGI,NCI-H23 lung,> 100 µM
same,TGI,NCI-H460 lung,> 100 µM
same,TGI,NCI-H522 lung,> 100 µM
same,TGI,OVCAR-3 ovarian,> 100 µM
same,TGI,OVCAR-5 ovarian,> 100 µM
same,TGI,OVCAR-8 ovarian,> 100 µM
same,TGI,RPMI-8226 leukemia,> 100 µM
same,TGI,RXF 393 renal,> 100 µM
same,TGI,SF-268 CNS,> 100 µM
same,TGI,SF-295 CNS,> 100 µM
same,TGI,SF-539 CNS,> 100 µM
same,TGI,SK-MEL-2 melanoma,> 100 µM
same,TGI,SK-MEL-28 melanoma,> 100 µM
same,TGI,SK-MEL-5 melanoma,> 100 µM
same,TGI,SK-OV-3 ovarian,> 100 µM
same,TGI,SN12C renal,> 100 µM
same,TGI,SNB-19 CNS,> 100 µM
same,TGI,SNB-75 CNS,> 100 µM
same,TGI,SNB-78 CNS,> 100 µM
same,TGI,SW-620 colon,> 100 µM
same,TGI,TK-10 renal,> 100 µM
same,TGI,U251 CNS,> 100 µM
same,TGI,UACC-257 melanoma,> 100 µM
same,TGI,UACC-62 melanoma,> 100 µM
same,TGI,UO-31 renal,> 100 µM
C#CCC(O)c1ccccc1C(O)CC#C (configuration not stated),TGI,786-0 renal,> 100 µM
same,TGI,A549 NSCLC,> 100 µM
same,TGI,ACHN renal,> 100 µM
same,TGI,CAKI-1 renal,> 100 µM
same,TGI,CCRF-CEM leukemia,> 100 µM
same,TGI,COLO 205 colon,> 100 µM
same,TGI,DLD-1 colon,> 100 µM
same,TGI,DMS 114 small cell lung,> 100 µM
same,TGI,DMS 273 small cell lung,> 100 µM
same,TGI,EKVX NSCLC,> 100 µM
same,TGI,HCC-2998 colon,> 100 µM
same,TGI,HCT-15 colon,> 100 µM
same,TGI,HL-60(TB) leukemia,> 100 µM
same,TGI,HOP-62 NSCLC,> 100 µM
same,TGI,HOP-92 NSCLC,> 100 µM
same,TGI,HT29 colon,> 100 µM
same,TGI,IGROV1 ovarian,> 100 µM
same,TGI,K-562 leukemia,> 100 µM
same,TGI,KM12 colon,> 100 µM
same,TGI,KM20L2 colon,> 100 µM
same,TGI,LOX IMVI melanoma,> 100 µM
same,TGI,LXFL 529 NSCLC,> 100 µM
same,TGI,M14 melanoma,> 100 µM
same,TGI,M19-MEL melanoma,> 100 µM
same,TGI,MALME-3M melanoma,> 100 µM
same,TGI,MOLT-4 leukemia,> 100 µM
same,TGI,NCI-H23 lung,> 100 µM
same,TGI,NCI-H460 lung,> 100 µM
same,TGI,NCI-H522 lung,> 100 µM
same,TGI,OVCAR-3 ovarian,> 100 µM
same,TGI,OVCAR-4 ovarian,> 100 µM
same,TGI,OVCAR-5 ovarian,> 100 µM
same,TGI,OVCAR-8 ovarian,> 100 µM
same,TGI,RPMI-8226 leukemia,> 100 µM
same,TGI,RXF 393 renal,95.2 µM
same,TGI,SF-295 CNS,> 100 µM
same,TGI,SK-MEL-2 melanoma,> 100 µM
same,TGI,SK-MEL-28 melanoma,> 100 µM
same,TGI,SK-MEL-5 melanoma,> 100 µM
same,TGI,SK-OV-3 ovarian,> 100 µM
same,TGI,SN12C renal,> 100 µM
same,TGI,SNB-19 CNS,> 100 µM
same,TGI,SNB-75 CNS,> 100 µM
same,TGI,SNB-78 CNS,> 100 µM
same,TGI,SW-620 colon,> 100 µM
same,TGI,TK-10 renal,> 100 µM
same,TGI,UACC-257 melanoma,> 100 µM
same,TGI,UACC-62 melanoma,> 100 µM
same,TGI,UO-31 renal,> 100 µM
